Columns and labels:
persian speedwell = experiment: Test Example 5: herbicidal effect by foliage application, plastic box (Table 20, symbol R); type: in vivo, Persian speedwell (Veronica persica); settings: foliage application, AAH 320 g/ha, evaluated three weeks after application
Outline: (§1)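 Post-emergence foliar test in sterilized diluvial soil. Compound applied as water-diluted emulsion at a predetermined rate to 14-day-old plants; evaluation at three weeks.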

southern crabgrass [1] = experiment: Test Example 5: herbicidal effect by foliage application, plastic box (Table 20, symbol F); type: in vivo, southern crabgrass (Digitaria ciliaris); settings: foliage application; for F: southern crabgrass, herbicidal effect grade: 320 g/ha, three weeks after application
Outline: as §1

redroot pigweed [2] = experiment: Test Example 5: herbicidal effect by foliage application, plastic box (Table 20, symbol N); type: in vivo, redroot pigweed (Amaranthus retroflexus); settings: foliage application; for N: redroot pigweed, herbicidal effect grade: 320 g/ha, three weeks after application
Outline: as §1

windgrass = experiment: Test Example 5: herbicidal effect by foliage application, plastic box (Table 20, symbol L); type: in vivo, windgrass (Apera spica-venti); settings: foliage application, AAH 320 g/ha, evaluated three weeks after application
Outline: as §1

Chinese sprangletop = experiment: Test Example 3: herbicidal effect by foliage application, Wagner pot (Table 18, symbol D); type: in vivo, chinese sprangletop (Leptochloa chinensis); settings: amount of applied herbicide 320 g/ha
Outline: (§2)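 Plants were sown in alluvial soil held under 0.1–0.5 cm standing water and grown 14 days in a greenhouse at 25–30 °C. An emulsifiable formulation, water-diluted to the set dose, was then sprayed onto the foliage, and effects were scored three weeks later using previously defined criteria.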

lambsquarters [3] = experiment: Test Example 5: herbicidal effect by foliage application, plastic box (Table 20, symbol O); type: in vivo, lambsquarters (Chenopodium album); settings: foliage application; for O: lambsquarters, herbicidal effect grade: 320 g/ha, three weeks after application
Outline: as §1

barnyard grass [4] = experiment: Test Example 3: herbicidal effect by foliage application, Wagner pot (Table 18, symbol H); type: in vivo, barnyard grass (Echinochloa crus-galli); settings: amount of applied herbicide 320 g/ha
Outline: as §2

barnyard grass [5] = experiment: Test Example 5: herbicidal effect by foliage application, plastic box (Table 20, symbol H); type: in vivo, barnyard grass (Echinochloa crus-galli); settings: foliage application; for H: barnyard grass, herbicidal effect grade: 320 g/ha, three weeks after application
Outline: as §1

rice flat sedge = experiment: Test Example 3: herbicidal effect by foliage application, Wagner pot (Table 18, symbol E); type: in vivo, rice flat sedge (Cyperus iria); settings: amount of applied herbicide 320 g/ha
Outline: as §2

Italian ryegrass = experiment: Test Example 5: herbicidal effect by foliage application, plastic box (Table 20, symbol K); type: in vivo, Italian ryegrass (Lolium multiflorum); settings: foliage application, AAH 320 g/ha, evaluated three weeks after application
Outline: as §1

oval-leafed pondweed = experiment: Test Example 1: herbicidal activity, application before weed generation under submerged conditions (Table 16, symbol C); type: in vivo, oval-leafed pondweed (Monochoria vaginalis); settings: for Herbicidal effect, C: oval-leafed pondweed: amount of applied herbicide 320 g/ha
Outline: (§3)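 Submerged Wagner pots (alluvial soil, 4 cm water) sown with weed seeds and planted with 2.5-leaf rice seedlings; emulsifiable concentrate diluted in water applied to water surface on sowing day. Held in greenhouse at 25-30 °C; injury scored 0-5 by herbicidal rate after three weeks.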

late watergrass = experiment: Test Example 1: herbicidal activity, application before weed generation under submerged conditions (Table 16, symbol A); type: in vivo, late watergrass (Echinochloa oryzicola); settings: for Herbicidal effect, A: late watergrass: amount of applied herbicide 320 g/ha
Outline: as §3

green foxtail [6] = experiment: Test Example 5: herbicidal effect by foliage application, plastic box (Table 20, symbol G); type: in vivo, green foxtail (Setaria viridis); settings: foliage application; for G: green foxtail, herbicidal effect grade: 320 g/ha, three weeks after application
Outline: as §1

velvetleaf [7] = experiment: Test Example 5: herbicidal effect by foliage application, plastic box (Table 20, symbol M); type: in vivo, velvetleaf (Abutilon theophrasti); settings: foliage application; for M: velvetleaf, herbicidal effect grade: 320 g/ha, three weeks after application
Outline: as §1

wild oat = experiment: Test Example 5: herbicidal effect by foliage application, plastic box (Table 20, symbol I); type: in vivo, wild oat (Avena fatua); settings: foliage application, AAH 320 g/ha, evaluated three weeks after application
Outline: as §1

Japanese bulrush = experiment: Test Example 1: herbicidal activity, application before weed generation under submerged conditions (Table 16, symbol B); type: in vivo, Japanese bulrush (Schoenoplectus juncoides); settings: for Herbicidal effect, B: Japanese bulrush: amount of applied herbicide 320 g/ha
Outline: as §3

blackgrass = experiment: Test Example 5: herbicidal effect by foliage application, plastic box (Table 20, symbol J); type: in vivo, blackgrass (Alopecurus myosuroides); settings: foliage application, AAH 320 g/ha, evaluated three weeks after application
Outline: as §1

southern crabgrass [8] = experiment: Test Example 4: herbicidal effect by soil treatment (Table 19, symbol F); type: in vivo, southern crabgrass (Digitaria ciliaris); settings: amount of applied herbicide 320 g/ha
Outline: (§4)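 Emulsion of test compound, water-diluted to predetermined amount, sprayed on soil after sowing (seed depth ~1.5 cm, sterilized diluvial soil). Greenhouse, 25–30° C. Effect graded at three weeks post-spray.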

lambsquarters [9] = experiment: Test Example 4: herbicidal effect by soil treatment (Table 19, symbol O); type: in vivo, lambsquarters (Chenopodium album); settings: amount of applied herbicide 320 g/ha
Outline: as §4

velvetleaf [10] = experiment: Test Example 4: herbicidal effect by soil treatment (Table 19, symbol M); type: in vivo, velvetleaf (Abutilon theophrasti); settings: amount of applied herbicide 320 g/ha
Outline: as §4

redroot pigweed [11] = experiment: Test Example 4: herbicidal effect by soil treatment (Table 19, symbol N); type: in vivo, redroot pigweed (Amaranthus retroflexus); settings: amount of applied herbicide 320 g/ha
Outline: as §4

barnyard grass [12] = experiment: Test Example 4: herbicidal effect by soil treatment (Table 19, symbol H); type: in vivo, barnyard grass (Echinochloa crus-galli); settings: amount of applied herbicide 320 g/ha
Outline: as §4

green foxtail [13] = experiment: Test Example 4: herbicidal effect by soil treatment (Table 19, symbol G); type: in vivo, green foxtail (Setaria viridis); settings: amount of applied herbicide 320 g/ha
Outline: as §4

[14] = AAH 320 g/ha, evaluated three weeks after application

Compound	herbicidal effect on D: Chinese sprangletop (Chinese sprangletop)	herbicidal effect on H: barnyard grass (barnyard grass [4])	herbicidal effect on E: rice flat sedge (rice flat sedge)	herbicidal effect, F: southern crabgrass (southern crabgrass [8])	herbicidal effect, O: lambsquarters (lambsquarters [9])	herbicidal effect, M: velvetleaf (velvetleaf [10])	F: southern crabgrass, herbicidal effect grade (southern crabgrass [1])	herbicidal effect, N: redroot pigweed (redroot pigweed [11])	herbicidal effect, H: barnyard grass (barnyard grass [12])	N: redroot pigweed, herbicidal effect grade (redroot pigweed [2])	herbicidal effect, G: green foxtail (green foxtail [13])	O: lambsquarters, herbicidal effect grade (lambsquarters [3])	H: barnyard grass, herbicidal effect grade (barnyard grass [5])	Herbicidal effect, C: oval-leafed pondweed (oval-leafed pondweed)	Herbicidal effect, A: late watergrass (late watergrass)	G: green foxtail, herbicidal effect grade (green foxtail [6])	M: velvetleaf, herbicidal effect grade (velvetleaf [7])	Herbicidal effect, B: Japanese bulrush (Japanese bulrush)	also measured
CCCC(=O)Oc1c(C)nn(C)c(=O)c1-c1c(-c2ccc(Cl)cc2Cl)sc2ccc(F)cc12 [2-347]	4 (Herbicidal rate of 70% or more and less than 90%)	4 (Herbicidal rate of 70% or more and less than 90%)	4 (Herbicidal rate of 70% or more and less than 90%)	–	–	–	–	–	–	–	–	–	–	–	–	–	–	–	R: persian speedwell, herbicidal effect (criteria 0-5) (persian speedwell): 4 (Herbicidal rate of 70% or more and less than 90%); F: southern crabgrass, herbicidal effect (criteria 0-5) (southern crabgrass [1]; [14]): 0 (Herbicidal rate of 5% or less (almost no effect)); N: redroot pigweed, herbicidal effect (criteria 0-5) (redroot pigweed [2]; [14]): 0 (Herbicidal rate of 5% or less (almost no effect)); L: windgrass, herbicidal effect (criteria 0-5) (windgrass): 3 (Herbicidal rate of 40% or more and less than 70%); O: lambsquarters, herbicidal effect (criteria 0-5) (lambsquarters [3]; [14]): 3 (Herbicidal rate of 40% or more and less than 70%); H: barnyard grass, herbicidal effect (criteria 0-5) (barnyard grass [5]; [14]): 0 (Herbicidal rate of 5% or less (almost no effect)); K: Italian ryegrass, herbicidal effect (criteria 0-5) (Italian ryegrass): 0 (Herbicidal rate of 5% or less (almost no effect)); Herbicidal effect on C: oval-leafed pondweed (grade 0-5) (oval-leafed pondweed; 320 g/ha applied herbicide): 0 (Herbicidal rate of 5% or less (almost no effect)); Herbicidal effect on A: late watergrass (grade 0-5) (late watergrass; 320 g/ha applied herbicide): 3 (Herbicidal rate of 40% or more and less than 70%); G: green foxtail, herbicidal effect (criteria 0-5) (green foxtail [6]; [14]): 0 (Herbicidal rate of 5% or less (almost no effect)); M: velvetleaf, herbicidal effect (criteria 0-5) (velvetleaf [7]; [14]): 0 (Herbicidal rate of 5% or less (almost no effect)); I: wild oat, herbicidal effect (criteria 0-5) (wild oat): 3 (Herbicidal rate of 40% or more and less than 70%); Herbicidal effect on B: Japanese bulrush (grade 0-5) (Japanese bulrush; 320 g/ha applied herbicide): 0 (Herbicidal rate of 5% or less (almost no effect)); J: blackgrass, herbicidal effect (criteria 0-5) (blackgrass): 0 (Herbicidal rate of 5% or less (almost no effect))
Cc1nn(C)c(=O)c(-c2c(-c3ccc(OCC[S+](C)[O-])cc3)sc3ccc(F)cc23)c1O (centres unmarked) [2-443]	4 (Herbicidal rate of 70% or more and less than 90%)	5 (Herbicidal rate of 90% or more (almost completely withered))	5 (Herbicidal rate of 90% or more (almost completely withered))	5 (Herbicidal rate of 90% or more (almost completely withered))	4 (Herbicidal rate of 70% or more and less than 90%)	3 (Herbicidal rate of 40% or more and less than 70%)	5 (Herbicidal rate of 90% or more (almost completely withered))	5 (Herbicidal rate of 90% or more (almost completely withered))	5 (Herbicidal rate of 90% or more (almost completely withered))	5 (Herbicidal rate of 90% or more (almost completely withered))	5 (Herbicidal rate of 90% or more (almost completely withered))	5 (Herbicidal rate of 90% or more (almost completely withered))	5 (Herbicidal rate of 90% or more (almost completely withered))	0 (Herbicidal rate of 5% or less (almost no effect))	3 (Herbicidal rate of 40% or more and less than 70%)	5 (Herbicidal rate of 90% or more (almost completely withered))	5 (Herbicidal rate of 90% or more (almost completely withered))	0 (Herbicidal rate of 5% or less (almost no effect))	–
Cc1nn(C)c(=O)c(-c2c(-c3ccc(OCCS(C)(=O)=O)cc3)sc3ccc(F)cc23)c1O [2-444]	4 (Herbicidal rate of 70% or more and less than 90%)	5 (Herbicidal rate of 90% or more (almost completely withered))	5 (Herbicidal rate of 90% or more (almost completely withered))	5 (Herbicidal rate of 90% or more (almost completely withered))	5 (Herbicidal rate of 90% or more (almost completely withered))	3 (Herbicidal rate of 40% or more and less than 70%)	5 (Herbicidal rate of 90% or more (almost completely withered))	5 (Herbicidal rate of 90% or more (almost completely withered))	4 (Herbicidal rate of 70% or more and less than 90%)	5 (Herbicidal rate of 90% or more (almost completely withered))	5 (Herbicidal rate of 90% or more (almost completely withered))	5 (Herbicidal rate of 90% or more (almost completely withered))	5 (Herbicidal rate of 90% or more (almost completely withered))	0 (Herbicidal rate of 5% or less (almost no effect))	3 (Herbicidal rate of 40% or more and less than 70%)	5 (Herbicidal rate of 90% or more (almost completely withered))	5 (Herbicidal rate of 90% or more (almost completely withered))	0 (Herbicidal rate of 5% or less (almost no effect))	–

From patent US20230085307A1, “PYRIDAZINONE COMPOUND AND HERBICIDE” (NISSAN CHEMICAL CORPORATION, priority 2019, published 2023)
